Legend:
XALD fibroblasts = assay: Inhibition studies: ATP5B immunofluorescence of drug-induced mitochondrial biogenesis; assay type: cell-based, human; settings: four days; FIG. 2A
Experimental: Performed as described in Watkins et al., 1995 using 4% formaldehyde, 1% Triton X-100, primary antibody anti-ATP5B (Millipore, Billerica, Mass.) or anti-ABCD3 (Invitrogen, Carlsbad, Calif.), and secondary antibody sheep anti-mouse IgG FITC-conjugated (Santa Cruz Biotechnology, Santa Cruz, Calif.) or goat anti-rabbit IgG rhodamine-conjugated (Jackson ImmunoResearch, West Grove, Pa.).
Antimycin A (10 ng/mL), LY294002, PD98059, RO-31-8425, SB203580, SP600125, and L-NAME were obtained from Sigma. Compound C was from EMD Biosciences (Darmstadt, Germany). Human fibroblasts were treated with each inhibitor. Then, 45-75 min later, either 4PBA, HU, TSA, or SFN was added. Cells were stained four to six days after treatment with one of the small molecules. As a control for inhibitors dissolved in DMSO, fibroblasts were treated with an equivalent amount of DMSO in the absence of inhibitor. […]
In FIGS. 2A-B, the JNK inhibitor SP600125 (10 μM+inh) was utilized. […] XALD fibroblasts were treated with each drug for four days with or without SP600125. (400× magnification). […] Normal human fibroblasts were treated with each of the small four molecules with or without SP600125 for six days. Quantitative in-cell western analyses were performed using anti-ATP5B.

JUN, PGC1α and PGC1β = assay: RT-PCR of JUN and mitochondrial transcription factors; assay type: cell-based, human; settings: FIG. 2E; for PGC1α and PGC1β transcript levels (abundance of mitochondrial transcription factors): 48 hours or more of treatment; for JUN transcript levels: normal human fibroblasts, six hours of treatment
Experimental: (§1) Following the manufacturer's protocols, DNase I-treated cDNA was synthesized using Superscript III or Thermoscript reverse transcriptase (Invitrogen). PCR reactions were performed in duplicate on the Roche Lightcycler 3.5 (Basel, Switzerland) or the Bio-Rad iCycler (Hercules, Calif.) using Quantitech SYBR green PCR mix (Qiagen, Valencia, Calif.). GeNorm software calculated a normalization factor for each sample using the relative amounts of at least two of the following reference genes, β2-microglobulin, glyceraldehyde-6-phosphate, actin, and/or eukaryotic elongation factor 1A (Vandesompele et al., 2002).
The relative gene expression for each treatment compared to untreated normal human fibroblasts was calculated and the fold change (drug treated/untreated) is shown.

JNK pathway = assay: Immunoblot analysis of JNK phosphorylation; assay type: cell-based; settings: normal human fibroblasts, within 24 hours; FIG. 2F
Experimental: (§2) Cell lysates were collected in mammalian protein extraction reagent (m-PER; Thermo Scientific, Rockford, Ill.) plus 1×protease inhibitor (Sigma-Aldrich) and 1×Halt phosphatase inhibitor (Thermo Scientific). Denatured SDS-PAGE and immunoblot analyses were performed using the following antibodies: phosphorylated JNK and β-actin from Santa Cruz Biotechnology, HSP70, HSP90, BIP, phosphorylated eIF2α, and XBP1 from Cell Signaling, APG8 (Abgent, San Diego, Calif.), and SOD2 (Stressgen, Ann Arbor, Mich.). Quantitation was performed using a Fuji Intelligent Dark box II, FUJI LAS-1000 Lite software and Image Gauge v4.22 software (Tokyo, Japan).
Normal human fibroblasts were treated at various time points. Treatment was initiated at the indicated times prior to collection. The average of the maximum protein expression (within 24 hours) for three or more independent experiments is shown as fold change (drug treated/untreated). Actin (43 kDa) was the loading control. M denotes the marker lane. […] The * statistically significant increase in a measurement between drug treated and untreated or control samples or a statistically significant decrease in a measurement between drug treated and drug treated samples in the presence of SP600125 (p≦0.05) (n≧3 independent experiments unless otherwise noted) (Bars=SEM).

[1] = test system: HSPA1A (HSP70), DNAJC3 (HSP40), HSP90AA1 (HSP90); assay: RT-PCR of heat shock response (HSR) genes; assay type: cell-based, human; settings: for transcription of HSPA1A (HSP70): FIG. 3A
Experimental: as §1
(§3) Expression of key components of the HSR, UPR, the autophagic response, and the antioxidant response were monitored at the transcriptional, translational, and/or post-translational level. […] Due to the transient nature of these responses, several components of each pathway were monitored at various time points within a 24 hour treatment. At least two normal human fibroblast lines were tested in three or more independent experiments. […] The average of the maximal increase in protein expression within a 24 hour time frame was also compared to the untreated sample. Activation of each pathway was assessed by an increase in one or more components of each pathway.
To evaluate its activation, the expression of heat shock protein (HSP) 40, HSP 70, and HSP 90 family members was monitored. […] Normal human fibroblasts were treated and the mRNA expression of HSPA1A (HSP70), DNAJC3 (HSP40), and HSP90AA1 (HSP90) was measured and plotted as in FIG. 2E.

HSP70 and HSP90 = assay: Immunoblot analyses of HSP expression; assay type: cell-based, human; settings: for heat shock response (HSR): normal human fibroblasts
Experimental: as §2, §3
Normal human fibroblasts were treated at various time points within 24 hours and the average of the maximum protein expression of HSP70 (70 kDa) and HSP90 (90 kDa) is plotted as in FIG. 2F. Actin (43 kDa) was used as a loading control. (UT=untreated cells; * statistical significance (p≦0.05); Bars=SEM for n≧3 independent experiments).

ATF4, CHOP, and BIP = assay: RT-PCR of unfolded protein response (UPR) genes; assay type: cell-based, human; settings: for BIP expression at the transcriptional level: normal human fibroblasts, FIG. 4A
Experimental: Following the manufacturer's protocols, DNase I-treated cDNA was synthesized using Superscript III or Thermoscript reverse transcriptase (Invitrogen). PCR reactions were performed in duplicate on the Roche Lightcycler 3.5 (Basel, Switzerland) or the Bio-Rad iCycler (Hercules, Calif.) using Quantitech SYBR green PCR mix (Qiagen, Valencia, Calif.). GeNorm software calculated a normalization factor for each sample using the relative amounts of at least two of the following reference genes, β2-microglobulin, […], actin, and/or eukaryotic elongation factor 1A (Vandesompele et al., 2002). Primers for the various experiments described herein are listed below.
Expression of key components of the HSR, UPR, the autophagic response, and the antioxidant response were monitored at the transcriptional, translational, and/or post-translational level. These responses are known to be transiently activated in response to various cellular stressors. The degree of induction of each component can vary depending on the metabolic state of the cell (e.g., confluency, cell passage number) (Kultz 2003; Lallemand et al., 1998; Westerheide et al., 2009). Due to the transient nature of these responses, several components of each pathway were monitored at various time points within a 24 hour treatment. At least two normal human fibroblast lines were tested in three or more independent experiments. […] The average of the maximal increase in protein expression within a 24 hour time frame was also compared to the untreated sample. Activation of each pathway was assessed by an increase in one or more components of each pathway.
UPR markers evaluated included the central UPR regulator glucose regulated protein 78 (BIP) and other components that are stimulated after the activation of the three ER transmembrane receptors: PKR-like ER kinase (PERK), inositol requiring 1 (IRE1), and activating transcription factor 6 (Fedoroff 2006). […] 2 alpha (eIF2a) is phosphorylated by PERK, attenuates general translation, and induces activating transcription factor 4 (ATF4). CHOP promotes reactivation of PERK. XBP1 mRNA is non-conventionally spliced by the endonuclease activity of IRE1 upon UPR activation.
Normal human fibroblasts were treated with drugs as indicated. The expression of the UPR genes ATF4, CHOP, and BIP was measured as described in FIG. 2E. […] Normal human fibroblasts were treated at various time points and the average of the maximum protein expression of BIP (78 kDa) and phosphorylated eIF2α (38 kDa) is plotted as in FIG. 2F. Actin (43 kDa) was used as a loading control and is the same blot as FIG. 2F. UT denotes untreated cells. M denotes marker lane. […] Normal human fibroblasts were treated. The expression of the unspliced form (XBP1-us; 33 kDa) and the activated and spliced form of XBP1 (XBP1-s; 54 kDa) was analyzed by immunoblotting. BP1-s is a larger protein than XBP1-us due to non-canonical mRNA splicing which results in a larger carboxy-terminal domain. […] The average of the maximum expression of XBP1-s (within 24 hrs.) is plotted as in FIG. 2F. Actin was used as a loading control.

BCN1 and ATG5 = assay: RT-PCR of autophagy genes; assay type: cell-based, human; settings: for ATG5 mRNA levels / BCN1 mRNA levels: normal human fibroblasts, FIG. 5A
Experimental: as §1, §3
To monitor activation of autophagy, the expression of three classical autophagy markers was examined. The three classical autophagy markers are: (i) beclin-1 (BCN1), (ii) autophagy protein 5 (ATG5), and (iii) microtubule-associated protein 1 light chain 3 (LC3 or APG8). […] Normal human fibroblasts were treated as indicated. The expression of BCN1 and ATG5 were measured as described in FIG. 2E. After TSA treatment, the levels of ATG5 mRNA were measured in two independent experiments in duplicate.

NFE2L2, HMOX1, and SOD2 = assay: RT-PCR of antioxidant genes; assay type: cell-based, human; settings: for HMOX1 mRNA levels / NFE2L2 mRNA levels / SOD2 mRNA levels: normal human fibroblasts, 18 hours, FIG. 5C
Experimental: as §1
The expression of three key components was examined—(i) nuclear factor erythroid 2-like 2 (NFE2L2), (ii) heme oxygenase 1 (HMOX1), and (iii) superoxide dismutase 2 (SOD2). […] Normal human fibroblasts were treated for 18 hours. The expression of NFE2L2, HMOX1, and SOD2 was measured as described in FIG. 2E.

[2] = test system: class I and class II HDAC; assay: Colorimetric HDAC activity assay in HeLa or fibroblast lysates; assay type: biochemical; settings: HeLa and human fibroblast lysates; two concentrations (treatment concentration and ten times); FIG. 6A-B
Experimental: A colorimetric HDAC activity assay was performed in triplicate using 100-200 μg of HeLa or fibroblast lysates following the manufacturer's protocol (K331; Biovision, Mountain View, Calif.).
Whether inhibition of class I and class II HDAC activities is a shared biochemical function that could account for the effects of all four small molecules was examined. Using lysates from HeLa cells and primary human fibroblasts, an in vitro colorimetric assay of HDAC activity was performed. Two concentrations of each small molecule were used. The first concentration was that used to treat primary human fibroblasts in the experiments reported herein, which minimally affects growth. The second concentration was ten times the first concentration and is lethal in cell culture. […] (* p≦0.00009; paired t-test; Bars=SEM for n≧3 independent experiments).

[3] = test system: spinal muscular atrophy fibroblasts; assay: Mitotracker Red CMXROS staining; assay type: cell-based, human; settings: 2.5 mM 4PBA, HU, 100 nM TSA or 2.5 mM SFN for 5 days; FIG. 7
Experimental: SMA type I (GM00232) fibroblasts were treated with 2.5 mM 4PBA, 300 mM HU, 100 nM TSA or 2.5 mM SFN for 5 days, live stained with 25 nM Mitotracker Red CMXROS (Invitrogen) in pre-warmed MEM media for 15 min at 37° C. in a CO2 incubator. Stained cells were washed with pre-warmed MEM, washed with PBS and excess PBS was removed. The cells were examined under the microscope at ×80.
Spinal muscular atrophy fibroblasts were treated with 2.5 mM 4PBA, 300 mM HU, 100 nM TSA or 2.5 mM SFN for 5 days (×80 magnification).

SIRT1 = SIRT1 protein expression in normal human fibroblasts; assay type: cell-based
Sickle Cell Disease = settings: Hsiao et al., 2006; cited from earlier work
Spinal Muscular Atrophy = settings: Lunn et al., 2008; cited from earlier work
Cystic Fibrosis = settings: Choo-Kang et al., 2001, Hutt et al., 2010; cited from earlier work

Row | Molecule | mitochondrial biogenesis in XALD fibroblasts (XALD fibroblasts) | PGC1α and PGC1β transcript levels (abundance of mitochondrial transcription factors) (JUN, PGC1α and PGC1β) | JUN transcript levels (JUN, PGC1α and PGC1β) | JNK pathway (JNK phosphorylation) (JNK pathway) | transcription of HSPA1A (HSP70) ([1]; normal human fibroblasts) | heat shock response (HSR) (HSP70 and HSP90) | BIP expression at the transcriptional level (ATF4, CHOP, and BIP) | ATG5 mRNA levels (BCN1 and ATG5) | BCN1 mRNA levels (BCN1 and ATG5) | HMOX1 mRNA levels (NFE2L2, HMOX1, and SOD2) | NFE2L2 mRNA levels (NFE2L2, HMOX1, and SOD2) | SOD2 mRNA levels (NFE2L2, HMOX1, and SOD2) | HDAC activity compared to untreated lysates [2] | mitochondrial biogenesis (Mitotracker staining) [3] | SIRT1 protein expression (SIRT1) | Therapeutic Effect (Sickle Cell Disease) | Therapeutic Effect (Spinal Muscular Atrophy) | Therapeutic Effect (Cystic Fibrosis) | other results
1 | 4-phenylbutyrate [4PBA] | increased | increased | significantly increased | activated | increased | activated | significantly increased | increased | increased | significantly decreased | increased | increased | significantly decreased | induced | no marked changes | increase F-cell production | increase percentage of full | increase proper protein | 
2 | C[S@@+]([O-])CCCCN=C=S [SFN, 1-isothiocyanato-4R-(methylsulfinyl)butane] | increased | increased | not consistently changed | activated | increased | activated | significantly increased | increased | increased | significantly increased | increased | increased | neither concentration of HU nor SFN reduced | induced | no marked changes |  |  |  | transcription of HSP40 increase ([1]; in vitro sulforaphane studies): 3 fold; transcription of HSP70 increase ([1]; in vitro sulforaphane studies): 7 fold; transcription of HSP 90 increase ([1]; in vitro sulforaphane studies): 3 fold; mRNA expression of heat-shock proteins genes increase ([1]; normal human fibroblasts, 5 micromolar (μM)): 3-7 fold; total HSP70 protein levels increase (HSP70 and HSP90; in vitro sulforaphane studies): 3-4 fold; total HSP90 protein levels increase (HSP70 and HSP90; in vitro sulforaphane studies): 3-4 fold; ATF4 mRNA expression increase (ATF4, CHOP, and BIP; in vitro sulforaphane studies): 4-5 fold; BIP increase at the transcriptional level (ATF4, CHOP, and BIP; in vitro sulforaphane studies): 2-3 fold; CHOP mRNA expression increase (ATF4, CHOP, and BIP; in vitro sulforaphane studies): 4-5 fold; ATG5 mRNA levels increase (BCN1 and ATG5; in vitro sulforaphane studies): 3 fold; BCN1 mRNA levels increase (BCN1 and ATG5; in vitro sulforaphane studies): 5 fold; expression of HMOX1 increase (NFE2L2, HMOX1, and SOD2; in vitro sulforaphane studies): 6 fold; expression of NFE2L2 increase (NFE2L2, HMOX1, and SOD2; in vitro sulforaphane studies): 3 fold; expression of SOD2 increase (NFE2L2, HMOX1, and SOD2; in vitro sulforaphane studies): 4 fold
3 | NC(=O)NO [HU, hydroxyurea] | increased | increased | significantly increased | activated | not stimulated | activated | significantly increased | increased | not reproducibly changed | significantly increased | increased | increased | neither concentration of HU nor SFN reduced | induced | no marked changes | increase F-cell production | increase percentage of full |  | 
4 | CC(/C=C/C(=O)NO)=C\[C@@H](C)C(=O)c1ccc(N(C)C)cc1 [TSA, trichostatin A] | increased | increased | significantly increased | activated | increased | activated | significantly increased | increased | increased | significantly increased | increased | increased | significantly decreased | induced | no marked changes | increase F-cell production | increase percentage of full | increase proper protein | 
